A value given as a limit tells only on which side of the number the result lay.

The target of this assay is T1, human DGAT2 (Homo sapiens, UniProt Q96PD7).
T1 construct: FLAG (DYKDDDDK); made in house; host or cells: Sf-21 insect cells (BacPAK baculovirus system); membrane fraction used
T1 sequence (Q96PD7 1-388): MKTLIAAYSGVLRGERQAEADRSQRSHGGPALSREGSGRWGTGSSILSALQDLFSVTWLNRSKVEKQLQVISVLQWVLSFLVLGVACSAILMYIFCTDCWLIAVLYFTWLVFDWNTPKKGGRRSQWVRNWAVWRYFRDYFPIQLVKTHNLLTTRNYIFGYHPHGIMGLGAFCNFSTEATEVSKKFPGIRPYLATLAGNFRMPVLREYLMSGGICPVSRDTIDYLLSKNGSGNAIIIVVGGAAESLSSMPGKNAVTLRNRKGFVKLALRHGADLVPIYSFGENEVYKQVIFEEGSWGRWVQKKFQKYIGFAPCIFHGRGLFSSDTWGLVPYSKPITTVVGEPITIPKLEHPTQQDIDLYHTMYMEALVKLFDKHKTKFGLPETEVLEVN
Briefly: DGAT2 enzyme activity inhibition, Phospholipid FlashPlate SPA. It is filed as biochemical. To be noted: recombinant human DGAT2 membrane protein from Sf-21 cells; inhibition of [14C]-TG production; 37° C. A digest of the protocol:
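Sf-21 membranes expressing recombinant human DGAT2 (2 μg) preincubated with compound (3 nM–10 μM, 1% DMSO) and 50 μM 1,2 sn-oleoyl glycerol, 20 min at 37 °C, then 1 μM [14C]oleoyl-CoA for 15 min. [14C]-TG counted by SPA; inhibition as % of untreated.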
The term IC50 denotes the concentration at which inhibition is half-maximal. As to `CCOc1ccccc1O[C@@H]1CCCN(c2cncc(Nc3nccc(-c4cccc(OC(C)(C)C(=O)O)c4)n3)n2)C1` [Example 158, (R)-2-(3-(2-((6-(3-(2-ethoxyphenoxy)piperidin-1-yl)pyrazin-2-yl)amino)pyrimidin-4-yl)phenoxy)-2-methylpropanoic Acid], the IC50 stood at 1100 nM.

In the case of `CCOc1ccccc1O[C@@H]1CCCN(c2cncc(Nc3nccc(-c4cccc(CC(C)(C)C(=O)O)c4)n3)n2)C1` [Example 146, (R)-3-(3-(2-((6-(3-(2-ethoxyphenoxy)piperidin-1-yl)pyrazin-2-yl)amino)pyrimidin-4-yl)phenyl)-2,2-dimethylpropanoic Acid], the IC50 was found to be 390 nM.

On to `CCOc1ccccc1O[C@@H]1CCCN(c2cncc(Nc3nccc(N4CCC(C(C)(C)C(=O)O)CC4)n3)n2)C1` [Example 126, (R)-2-(1-(2-((6-(3-(2-ethoxyphenoxy)piperidin-1-yl)pyrazin-2-yl)amino)pyrimidin-4-yl)piperidin-4-yl)-2-methylpropanoic Acid], for which the IC50 came to 800 nM.

In the case of `CCOc1ccccc1O[C@@H]1CCCN(c2cncc(Nc3cccc(-c4cccc(OC(C)(C)C(=O)O)c4)n3)n2)C1` [Example 80, (R)-2-(3-(6-((6-(3-(2-ethoxyphenoxy)piperidin-1-yl)pyrazin-2-yl)amino)pyridin-2-yl)phenoxy)-2-methylpropanoic Acid], the IC50 came out at 310 nM.

With `CCOc1ccccc1O[C@@H]1CCCN(c2cncc(Nc3ccc(/C=C/C(=O)O)cn3)n2)C1` [Example 37, (R,E)-3-(6-((6-(3-(2-ethoxyphenoxy)piperidin-1-yl)pyrazin-2-yl)amino)pyridin-3-yl)acrylic Acid], the IC50 was above 10000 nM.

On to `CCOc1ccccc1O[C@@H]1CCCN(c2cncc(Nc3nccs3)n2)C1` [Example 3, (R)—N-(6-(3-(2-ethoxyphenoxy)piperidin-1-yl)pyrazin-2-yl)thiazol-2-amine], for which the IC50 came out at 6300 nM.

As to `CCOc1cccnc1O[C@@H]1CCCN(c2ccnc(Nc3nccc(C(C)(C)C(=O)O)n3)n2)C1` [Example 116], the IC50 was found to be 410 nM.

As for `CCOc1ccccc1O[C@@H]1CCCN(c2cncc(Nc3cc(C(C)(C)C(=O)O)ccn3)n2)C1` [Example 35, (R)-2-(2-((6-(3-(2-ethoxyphenoxy)piperidin-1-yl)pyrazin-2-yl)amino)pyridin-4-yl)-2-methylpropanoic Acid], the 50% inhibitory concentration (IC50) was 440 nM.

As to `CCOc1ccccc1O[C@@H]1CCCN(c2cncc(Nc3ccc(C(C)(C)C(=O)O)cc3)n2)C1` [Example 27, (R)-2-(4-((6-(3-(2-ethoxyphenoxy)piperidin-1-yl)pyrazin-2-yl)amino)phenyl)-2-methylpropanoic Acid], the IC50 was above 10000 nM.

For `CCOc1cccnc1O[C@@H]1CCCN(c2cncc(Nc3nccc(-c4ccc(CC(=O)O)cc4)n3)n2)C1` [Example 152, (R)-2-(4-(2-((6-(3-((3-ethoxypyridin-2-yl)oxy)piperidin-1-yl)pyrazin-2-yl)amino)pyrimidin-4-yl)phenyl)acetic Acid], the IC50 came out at 810 nM.

For the compound `CCOc1ccccc1O[C@@H]1CCCN(c2cncc(Nc3cccc(-c4cc(CC(C)(C)C(=O)O)ccc4F)n3)n2)C1` [Example 78, (R)-3-(3-(6-((6-(3-(2-ethoxyphenoxy)piperidin-1-yl)pyrazin-2-yl)amino)pyridin-2-yl)-4-fluorophenyl)-2,2-dimethylpropanoic Acid], the IC50 stood at 290 nM.

Take `CCOc1cccnc1O[C@@H]1CCCN(c2cncc(Nc3nc(-c4cccc(CC(C)(C)C(=O)O)c4)cc(C(F)(F)F)n3)n2)C1` [Example 166, (R)-3-(3-(2-((6-(3-((3-ethoxypyridin-2-yl)oxy)piperidin-1-yl)pyrazin-2-yl)amino)-6-(trifluoromethyl)pyrimidin-4-yl)phenyl)-2,2-dimethylpropanoic Acid]: the half-inhibitory concentration (IC50) came out at 470 nM.

As for `CCOc1cccnc1O[C@@H]1CCCN(c2cncc(Nc3cccc(Oc4cccc(CC(=O)O)c4)n3)n2)C1` [Example 96, (R)-2-(3-((6-((6-(3-((3-ethoxypyridin-2-yl)oxy)piperidin-1-yl)pyrazin-2-yl)amino)pyridin-2-yl)oxy)phenyl)acetic Acid], the IC50 was 87 nM.

Regarding `CCOc1ccccc1O[C@@H]1CCCN(c2cncc(Nc3cccc(N4CCC[C@H](OCC(=O)O)C4)n3)n2)C1` [Example 59], the IC50 was found to be 3700 nM.

For the compound `CCOc1ccccc1O[C@@H]1CCCN(c2cncc(Nc3cc[nH]n3)n2)C1` [Example 19, (R)-6-(3-(2-ethoxyphenoxy)piperidin-1-yl)-N-(1H-pyrazol-3-yl)pyrazin-2-amine], the IC50 came out at 1700 nM.

Take `CCOc1ccccc1O[C@@H]1CCCN(c2cncc(Nc3ccc(-c4ccccc4)cn3)n2)C1` [Example 40, (R)-6-(3-(2-ethoxyphenoxy)piperidin-1-yl)-N-(5-phenylpyridin-2-yl)pyrazin-2-amine]: the half-inhibitory concentration (IC50) worked out at 1700 nM.

With `CCOc1cccnc1O[C@@H]1CCCN(c2cncc(Nc3nccc(O[C@H]4CC[C@H](C(=O)O)CC4)n3)n2)C1` [Example 136, (1R,4r)-4-((2-((6-((R)-3-((3-ethoxypyridin-2-yl)oxy)piperidin-1-yl)pyrazin-2-yl)amino)pyrimidin-4-yl)oxy)cyclohexane-1-carboxylic Acid], the IC50 came out at 300 nM.

For `CCOc1ccccc1O[C@@H]1CCCN(c2cncc(Nc3ccn(-c4cccc(CC(C)(C)C(=O)O)c4)n3)n2)C1` [Example 69, (R)-3-(3-(3-((6-(3-(2-ethoxyphenoxy)piperidin-1-yl)pyrazin-2-yl)amino)-1H-pyrazol-1-yl)phenyl)-2,2-dimethylpropanoic Acid], the IC50 was 1100 nM.

Consider `CCOc1cccnc1O[C@@H]1CCCN(c2cncc(Nc3cccc(Oc4ccc(CC(=O)O)cc4)n3)n2)C1` [Example 98, (R)-2-(4-((6-((6-(3-((3-ethoxypyridin-2-yl)oxy)piperidin-1-yl)pyrazin-2-yl)amino)pyridin-2-yl)oxy)phenyl)acetic Acid], for which the IC50 was determined as 490 nM.

Take `CCOc1ccccc1O[C@@H]1CCCN(c2nccc(Nc3cccc(-c4cccc(CC(C)(C)C(=O)O)c4)n3)n2)C1` [Example 66, (R)-3-(3-(6-((2-(3-(2-ethoxyphenoxy)piperidin-1-yl)pyrimidin-4-yl)amino)pyridin-2-yl)phenyl)-2,2-dimethylpropanoic Acid]: the IC50 is 3500 nM.

For `CCOc1ccccc1O[C@@H]1CCCN(c2cncc(Nc3ccc(C(=O)O)cn3)n2)C1` [Example 32, (R)-6-((6-(3-(2-ethoxyphenoxy)piperidin-1-yl)pyrazin-2-yl)amino)nicotinic Acid], the IC50 is above 10000 nM.

As to `CCOc1ccccc1O[C@@H]1CCCN(c2cncc(Nc3nccc(N4CCC[C@@H](CCC(=O)O)C4)n3)n2)C1` [Example 130, 3-((S)-1-(2-((6-((R)-3-(2-ethoxyphenoxy)piperidin-1-yl)pyrazin-2-yl)amino)pyrimidin-4-yl)piperidin-3-yl)propanoic Acid], the IC50 was determined as 2100 nM.

As to `CCOc1ccccc1O[C@@H]1CCCN(c2cncc(Nc3cc(C(=O)O)ccn3)n2)C1` [Example 33, (R)-2-((6-(3-(2-ethoxyphenoxy)piperidin-1-yl)pyrazin-2-yl)amino)isonicotinic Acid], the IC50 was above 10000 nM.

Consider `CCOc1cccnc1O[C@@H]1CCCN(c2cncc(Nc3ncc(C(F)(F)F)c(-c4cccc(CC(C)(C)C(=O)O)c4)n3)n2)C1` [Example 165, (R)-3-(3-(2-((6-(3-((3-ethoxypyridin-2-yl)oxy)piperidin-1-yl)pyrazin-2-yl)amino)-5-(trifluoromethyl)pyrimidin-4-yl)phenyl)-2,2-dimethylpropanoic Acid], for which the IC50 is 64 nM.

In the case of `CCOc1cccnc1O[C@@H]1CCCN(c2cncc(Nc3cccc(-c4cc(OC(C)(C)C(=O)O)ccc4F)n3)n2)C1` [Example 85, (R)-2-(3-(6-((6-(3-((3-ethoxypyridin-2-yl)oxy)piperidin-1-yl)pyrazin-2-yl)amino)pyridin-2-yl)-4-fluorophenoxy)-2-methylpropanoic Acid], the concentration for half-maximal inhibition (IC50) amounted to 220 nM.

As for `CCOc1ccccc1O[C@@H]1CCCN(c2cncc(Nc3ccc(CCC(=O)O)cn3)n2)C1` [Example 38, (R)-3-(6-((6-(3-(2-ethoxyphenoxy)piperidin-1-yl)pyrazin-2-yl)amino)pyridin-3-yl)propanoic Acid], the IC50 is above 10000 nM.

Consider `CCOc1ccccc1O[C@@H]1CCCN(c2cncc(Nc3ccccc3)n2)C1` [Example 24, (R)—N-6-(3-(2-ethoxyphenoxy)piperidin-1-yl)-N-phenylpyrazin-2-amine], for which the IC50 was found to be 5500 nM.

Turning to `CCOc1ccccc1O[C@@H]1CCCN(c2cncc(Nc3nc4cc(/C=C/C(=O)O)ccc4o3)n2)C1` [Example 15, (R,E)-3-(2-((6-(3-(2-ethoxyphenoxy)piperidin-1-yl)pyrazin-2-yl)amino)benzo[d]oxazol-5-yl)acrylic Acid], the IC50 was found to be 7300 nM.

Turning to `CCOc1ccccc1O[C@@H]1CCCN(c2cncc(Nc3nccc(-c4ccc(C(C)(C)C(=O)O)cc4)n3)n2)C1` [Example 143, (R)-2-(4-(2-((6-(3-(2-ethoxyphenoxy)piperidin-1-yl)pyrazin-2-yl)amino)pyrimidin-4-yl)phenyl)-2-methylpropanoic Acid], the IC50 was 200 nM.

For the compound `CCOc1ccccc1O[C@@H]1CCCN(c2cncc(Nc3cccc(N4CCC(C(=O)O)CC4)n3)n2)C1` [Example 56, (R)-1-(6-((6-(3-(2-ethoxyphenoxy)piperidin-1-yl)pyrazin-2-yl)amino)pyridin-2-yl)piperidine-4-carboxylic Acid], the IC50 was found to be 130 nM.

The record behind these values is US12630528B2, “Amino aryl derivative useful as diacylglycerol acyltransferase 2 inhibitor and use thereof” (LG CHEM, LTD., priority 2019, dated 2026).
